Test results reported in BigSolDB 2.1.

CC#C[C@]1(O)CC[C@H]2[C@@H]3CCC4=CC(=O)CCC4=C3[C@@H](c3ccc(N(C)C)cc3)C[C@@]21C
solubility (mole fraction)
Conditions	273.15 K	278.15 K	283.15 K	288.15 K	293.15 K	298.15 K	303.15 K	308.15 K	313.15 K	318.15 K
in THF	5.16e-05	6e-05	6.95e-05	8.05e-05	9.3e-05	0.000107	0.000123	0.000142	0.000163	0.000188
in acetone	0.000149	0.000184	0.000228	0.000281	0.000345	0.000422	0.000516	0.000628	0.000762	0.000922
in ethanol	0.000122	0.000146	0.000174	0.000206	0.000244	0.000289	0.000341	0.000401	0.000472	0.000552
in ethyl acetate	0.000103	0.000125	0.000152	0.000184	0.000223	0.00027	0.000325	0.000392	0.000471	0.000565
in isopropanol	7.13e-05	0.000109	0.000164	0.000244	0.000358	0.000518	0.00074	0.00105	0.00146	0.00202
in methanol	0.000445	0.00058	0.000756	0.000982	0.00128	0.00164	0.0021	0.00266	0.00333	0.00414
in n-butanol	0.000172	0.000213	0.000264	0.000332	0.000412	0.000502	0.000612	0.000733	0.000875	0.00103
in n-propanol	0.000138	0.000163	0.000192	0.000226	0.000266	0.00031	0.000362	0.000428	0.000499	0.000582
